Data reported in patent publication US8216580B2, “Sulfatases and methods of use thereof” (The Regents of the University of California, priority 2000, dated 2012).

Experiment: Endo-glucosamine-6-sulfatase assay against intact heparin (heparinase digestion, disaccharide HPLC)
Assay type: biochemical, porcine
Details: for Endo-glucosamine-6-sulfatase activity: 10 μg heparin, pH 7.5, 37° C., 8 hr, means±S.D., three reactions
Method: The procedures of Yoshida et al ((1989) Anal. Biochem. 177:327-332) were adapted for these assays. CM from transfected CHO cells (wild-type Sulfs, vector control or the double cysteine mutants) was prepared as described above. The standard reaction mixture contained 5 μmol of Tris-HCl, pH 7.5, 1 μmol of MgCl2, 10 μg of porcine intestinal heparin (Sigma, St. Louis, Mo.) and 20 μl of the 100-fold concentrated CM in a total volume of 100 μl. After incubation at 37° C. for 8 hr, the reaction was stopped by heating at 100° C. for 2 min. A mixture of 1 milliunit of Heparinase I (EC 4.2.2.7, Sigma), 0.25 milliunits of Heparinase II (Sigma) and 0.1 milliunits of Heparinase III (EC 4.2.2.8, Sigma) in 1.5 μl of 50 mM Tris-HCl, pH 7.5, was added to the reaction mixture and incubated at 37° C. for 3 hr. The digestion was stopped by heating at 100° C. for 2 min, and the mixture was filtered by centrifugation in an Ultrafree-MC filter (Millipore).
The disaccharides of the digested heparin were then analyzed by HPLC on a Partisil-10 SAX column (Whatman, Fairfield, N.J.) run at 41° C. Disaccharides were eluted from the column by increasing the ionic strength as follows: time 0-5 min, 12 mM KH2PO4; time 5-40 minutes, gradient from 12 mM to 600 mM; time 40-45 min, 600 mM. Absorbance at 232 nm was monitored and components were identified by comparison with authentic unsaturated disaccharide markers from Sigma, i.e. ΔDiHS-0S, ΔDiHS-6S, ΔDiHS-NS, ΔDiHS-(N,6)diS, ΔDiHS-(N,2)diS and ΔDiHS-(N,6,2)triS. The endo-glucosanine-6-sulfatase activities of human Sulf-1 and Sulf-2 against heparin proceeded linearly up to 10 hr under these conditions. In other assays, 10 μg of chondroitin 6-sulfate was employed as a substrate in the standard assay. After incubation with CM, 15 milliunits of Chondroitinase ABC (EC 4.2.2.4, Sigma) was used to fragment the chondroitin sulfate. The standards used were as follows: ΔDi-0S, ΔDi-6S, ΔDi-4S, ΔDi-diSD(2,6) and ΔDi-diSE(4,6). All were from Oxford GlycoSystems Inc.
Intact heparin (10 μg) was treated with conditioned medium from Sulf transfected CHO cells. To analyze activity on specific sulfation modifications, we digested the treated heparin with a mixture of bacterial heparinases and analyzed the disaccharide products by HPLC using standards (Yoshida, supra). Both HSulf-1 CM and Hsulf-2 CM produced an ≈80% reduction in the amount of trisulfated units ([…]) corresponding to IdoA2S-GlcNS6S and a parallel increase in that of disulfated units (ΔDiHS-(N,2)diS) corresponding to IdoA2S-GlcNS (FIG. 16A-C). There were no effects on the disulfated units ΔDiHS-(N,6)diS, monosulfated or non-sulfated units. Specific activities were calculated based on the volume of CM (Table 3). The endosulfatase activities of Sulf-1 and Sulf-2 CM were increased 9-fold and 10-fold respectively relative to CM from mock transfected cells (Table 3). […] Further selectivity of the endosulfatase activity was indicated when we employed chondroitin 6-sulfate as a substrate. […] Thus the Sulfs are active against intact heparin.
Endo-glucosamine-6-sulfatase activity was measured against intact heparin as described in above using CM derived from CHO cells transfected with the indicated vectors. HSulf-1 ΔCC and HSulf-2 ΔCC denote the CC87, 88AA and CC88, 89AA mutants, respectively. Endosulfatase activity was defined by calculating the moles of unsaturated trisulfated disaccharides from which the sulfate group on C-6 position was liberated in the standard assay (FIGS. 16A-F) by the Sulfs as compared to levels in untreated control samples. Values shown are means±S.D. based on three independent reactions.

[1] = CM from transfected CHO cells, intact heparin 10 μg

Substance | Endo-glucosamine-6-sulfatase activity (CM from transfected CHO cells) | effects on the disulfated units ΔDiHS-(N,6)diS, monosulfated or non-sulfated units [1] | reduction in the amount of trisulfated units ([…]) corresponding to IdoA2S-GlcNS6S [1] | endosulfatase activity increase relative to CM from mock transfected cells (based on Table 3) [fold] | removal of sulfate from the 6-position of glucosamine within the tri-sulfated units (intact heparin, neutral pH) [%]
HSulf-2 ΔCC: catalytically inactive HSulf-2, cysteines 88 and 89 mutated to alanines (CC88, 89AA) | 5.6 ± 0.6 pmol/hr/ml of medium |  |  |  | 
HSulf-2: Human SULF2, an 870 amino acid sulfatase protein, SEQ ID NO:06; expressed with C-terminal Myc-His tag | 96.6 ± 0.5 pmol/hr/ml of medium | no effects | ≈ 80% | 10 | 80
